# Values quoted from earlier work, collected in US20210040357A1, “ELECTROCONDUCTIVE ADHESIVE COMPOSITION, CURED PRODUCT OF ELECTROCONDUCTIVE ADHESIVE, AND ELECTRONIC DEVICE” (TANAKA KIKINZOKU KOGYO K.K., priority 2018, published 2021).
row,Acid dissociation constant pKa,SMILES
1,4.64,CC(C)C1=CC2=CC[C@@H]3[C@](C)(CCC[C@@]3(C)C(=O)O)[C@H]2CC1 [Abietic acid]
2,about 5.0,CCCCCCCCCCCCCCCCCC(=O)O [Stearic acid]
3,about 5.0,CCCCCCCC/C=C\CCCCCCCC(=O)O [oleic acid]
